Experimental data from the supplement of paper PMC10307832.

Assays:
Experiment in all cases: relative viability (nuclei count vs DMSO), 5 days (fraction); higher = more cells survive
Erlotinib + Foretinib = compound: C#Cc1cccc(Nc2ncnc3cc(OCCOC)c(OCCOC)cc23)c1 [Erlotinib] + COc1cc2c(Oc3ccc(NC(=O)C4(C(=O)Nc5ccc(F)cc5)CC4)cc3F)ccnc2cc1OCCCN1CCOCC1 [Foretinib] (partner 0.25 µM)
Procedure, shortened: (§1)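 Values are medians from duplicate plates. Each reflects relative viability, defined as the nuclei count of treated wells over that of vehicle wells. Lung cancer cell lines in 1536-well plates were pin-tool dosed one day after seeding with one drug alone or with a fixed anchor-drug dose plus five library-drug doses (not always all listed) in √10 steps, then fixed, stained and imaged at 4× after 5 days.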

AT9283 + Pemetrexed = compound: O=C(Nc1c[nH]nc1-c1nc2ccc(CN3CCOCC3)cc2[nH]1)NC1CC1 [AT9283] + Nc1nc2[nH]cc(CCc3ccc(C(=O)N[C@@H](CCC(=O)O)C(=O)O)cc3)c2c(=O)[nH]1 [Pemetrexed] (partner 0.2 µM)
Procedure, shortened: as §1

AT9283 + Bortezomib = compound: O=C(Nc1c[nH]nc1-c1nc2ccc(CN3CCOCC3)cc2[nH]1)NC1CC1 [AT9283] + CC(C)C[C@H](NC(=O)[C@H](Cc1ccccc1)NC(=O)c1cnccn1)B(O)O [Bortezomib] (partner 0.002 µM)
Procedure, shortened: as §1

AT9283 + OSI-027 = compound: O=C(Nc1c[nH]nc1-c1nc2ccc(CN3CCOCC3)cc2[nH]1)NC1CC1 [AT9283] + COc1cccc2cc(-c3nc([C@H]4CC[C@H](C(=O)O)CC4)n4ncnc(N)c34)[nH]c12 [OSI-027] (partner 0.5 µM)
Procedure, shortened: as §1

Erlotinib + Olaparib = compound: C#Cc1cccc(Nc2ncnc3cc(OCCOC)c(OCCOC)cc23)c1 [Erlotinib] + O=C(c1cc(Cc2n[nH]c(=O)c3ccccc23)ccc1F)N1CCN(C(=O)C2CC2)CC1 [Olaparib] (partner 8 µM)
Procedure, shortened: as §1

Question: Which relative viability (Erlotinib + Foretinib; first compound 0.02 µM) does the source give for NCI-H441 here?
Answer: The relative viability was 1.01.

Question: What about the relative viability (Erlotinib + Foretinib; first compound 0.2 µM) of the same cell line?
Answer: Its relative viability is 1.02.

Question: And the relative viability (Erlotinib + Foretinib; first compound 0.6325 µM)?
Answer: Its relative viability is 0.933.

Question: What about the relative viability (Erlotinib + Foretinib; first compound 2 µM) of the same cell line?
Answer: Its relative viability is 0.883.

Question: What about the relative viability (AT9283 + Pemetrexed; first compound 0.003 µM) of the same cell line?
Answer: Its relative viability is 0.228.

Question: And the relative viability (AT9283 + Pemetrexed; first compound 0.03 µM)?
Answer: The relative viability was 0.274.

Question: What about the relative viability (AT9283 + Pemetrexed; first compound 0.09487 µM) of the same cell line?
Answer: Its relative viability is 0.25.

Question: What about the relative viability (AT9283 + Pemetrexed; first compound 0.3 µM) of the same cell line?
Answer: The relative viability was 0.238.

Question: What about the relative viability (AT9283 + Bortezomib; first compound 0.003 µM) of the same cell line?
Answer: The relative viability was 0.406.

Question: And the relative viability (AT9283 + Bortezomib; first compound 0.03 µM)?
Answer: Its relative viability is 0.442.

Question: What about the relative viability (AT9283 + Bortezomib; first compound 0.09487 µM) of the same cell line?
Answer: Its relative viability is 0.536.

Question: And the relative viability (AT9283 + Bortezomib; first compound 0.3 µM)?
Answer: Its relative viability is 0.381.

Question: And the relative viability (AT9283 + OSI-027; first compound 0.003 µM)?
Answer: Its relative viability is 0.532.

Question: What about the relative viability (AT9283 + OSI-027; first compound 0.03 µM) of the same cell line?
Answer: Its relative viability is 0.574.

Question: And the relative viability (AT9283 + OSI-027; first compound 0.09487 µM)?
Answer: The relative viability was 0.321.

Question: And the relative viability (AT9283 + OSI-027; first compound 0.3 µM)?
Answer: Its relative viability is 0.333.

Question: And the relative viability (Erlotinib + Olaparib; first compound 0.02 µM)?
Answer: Its relative viability is 0.626.

Question: And the relative viability (Erlotinib + Olaparib; first compound 0.2 µM)?
Answer: Its relative viability is 0.54.

Question: What about the relative viability (Erlotinib + Olaparib; first compound 0.6325 µM) of the same cell line?
Answer: The relative viability was 0.534.

Question: What about the relative viability (Erlotinib + Olaparib; first compound 2 µM) of the same cell line?
Answer: Its relative viability is 0.495.
